We go through 88 molecules from a melting point compilation (Tetko et al.; mined from patent text by program, amines drawn as free bases though some values may be those of a salt).

As a reminder, the melting point is the temperature of the solid-liquid transition.

Molecule `CNC(=O)N1CC(Oc2ccc(Cl)cc2Cl)C1` yielded a melting point of 140 to 141 °C.
To `CCOCc1nc2c(N)nc3cc(OCc4ccc(OC)cc4)ccc3c2n1CC(C)C` belongs 181 to 182 °C; to `CC(=O)OC1CSC(Oc2cccnc2-c2cccs2)C(OC(C)=O)C1OC(C)=O` (stereo not drawn), 166 °C.
As for `Cn1c(C(F)(F)F)cc(=O)n(C)c1=O`, the melting point lay within 85 to 87 °C.
Turning to `CC(C)(C)OC(=O)NCCN1CC2CNCC(C1)O2`, the melting point was 91 to 93 °C.
To `COC(=O)CC(S)C(CC(C)C)C(=O)NC(Cc1ccccc1)C(N)=O` (stereo not drawn) belongs 64 to 66 °C.
Then `CC(=O)C1Cc2c(nc3ccccc3c2C)C(N2CCOCC2)CN1` (stereo not drawn), with 179 °C.
To `CC(C)CP(=O)(CCC(=O)O)CCC(=O)O` belongs 186 to 187 °C; to `CCOC(=O)c1[nH]c(CC)c(CC)c1CC`, 47 to 49 °C; to `CCC(C)(C)c1ccc(OCCCCNC(=O)c2cc(Sc3nnnn3-c3ccccc3)c3ccccc3c2O)c(C(C)(C)CC)c1`, 147 to 148 °C.
In turn, `Cc1c(-c2ccccc2)nn(C(C)C(=O)N(C)C)c1[N+](=O)[O-]` (stereo not drawn) showed a melting point of 141 to 143 °C.
To `Cc1nc(N2C[C@@H](C)C[C@H](C)C2)c2nc(-c3ccccc3)cc-2[nH]1` (relative stereo) belongs 226 to 227 °C; to `COC(=O)c1ccc2c(c1)c(=O)[nH]c(=O)n2CCCCN1CCC(OC(c2ccccc2)c2ccccc2)CC1`, 151 to 153 °C.
Then `COc1cc2c(cc1Nc1ncc(Cl)c(Nc3ccccc3S(=O)(=O)N(C)C)n1)CCN(CC(C)(C)O)CC2`, with 188 to 189 °C; and `COc1ccc(S(=O)(=O)Nc2cccnc2NC(=O)c2ccccc2C)cc1`, with 160 to 162 °C.
As to `CCc1c(C(=O)c2cc(C)cc(C)c2)n(CC2=CC(CO)C(CO)C2)c(=O)[nH]c1=O` (stereo not drawn), the melting point is 79 to 80 °C.
Then `Cn1cc(C(N)=O)c(=O)c2ccc(Cl)cc21`, with more than 240 °C.
Then `O=c1[nH]c(=O)n(CCCCBr)c2cc(Cl)ccc12`, with 180 to 182 °C; and `CC1(C)N=C(c2ccccc2Cl)c2cc(N)ccc2N(CCO)C1=O`, with 175 to 176 °C.
Then `CNS(=O)(=O)c1cc2c(c(C(=O)NC3CCN(C4CCCCC4)C3)c1)OCCO2` (stereo not drawn), with 160 to 161 °C.
Regarding `CCOC(=O)/C=C/c1ccc(NC(=O)c2csc(NC(=O)NCc3ccccc3)n2)cc1`, the melting point was determined as 207 °C.
Then `O=C1NCCN(c2ccc(Cc3ccc(Cl)cc3)c(Cl)c2)N1`, with 157 to 158 °C; and `COC(=O)C1CC1c1ccc(O)cc1` (stereo not drawn), with 69 to 71 °C; and `NS(=O)(=O)Oc1ccc(C(c2ccc(OS(N)(=O)=O)c(Br)c2)n2cncn2)cc1Br`, with 98 to 102 °C.
To `O=C(OCc1ccccc1)N1CC(O)(C(=O)O)C1` belongs 134 to 136 °C; to `CCOC(=O)NCCCC1OCC(c2cccc3ccccc23)CO1` (stereo not drawn), 93 to 94 °C.
To `Cc1cc2c(cc1C=O)OCO2` belongs 84 to 86 °C.
`CC(C)(C)OC(=O)Nc1cccc(C2CCN(c3nc4c(cc3F)c(=O)c(C(=O)O)cn4C3CC3)C2)c1` (stereo not drawn) returned a melting point of 210 to 211 °C.
Then `Cn1ncc2c1-c1c(SC(C)(C)C)sc(C(=O)O)c1CC2`, with 277 to 278 °C.
With `COc1ccc2c3c(cn2S(=O)(=O)c2ccc(C)cc2)CC(N=[N+]=[N-])C(=O)c13` (stereo not drawn), the melting point fell in the range of 147 to 148 °C.
Then `Cn1cncc1COc1nn2c(-c3ccccc3)nnc2cc1-c1ccccc1`, with 195 to 196 °C; and `COCOc1nn(-c2ccccc2)cc1/C=C/c1nc(N2CCOCC2)sc1C`, with 162 to 164 °C.
Turning to `Cc1ncc(CO)n1-c1ccc([N+](=O)[O-])cc1C(=O)c1ccccc1F`, the melting point lay within 188 to 192 °C.
To `CNS(=O)(=O)CCc1ccc(NN=CCCC#N)cc1` belongs 96 to 97 °C.
Then `CCOC(=O)C1=C(C)N=C(OC)N(C(=O)OCC)C1c1cccc([N+](=O)[O-])c1` (stereo not drawn), with 61.5 to 64.5 °C; and `C#Cc1cc(Nc2ncnc3cnc(N)cc23)ccc1F`, with 218 to 222 °C.
Then `Cc1nc(N)nc(N)c1C#CCc1ccccc1`, with 145 to 149 °C.
For the molecule `CCCCc1ccc(CN(CCC(C)(C)C)C(=O)Nc2c(C)cc(Cl)cc2C)cc1`, the melting point was in the range of 138 to 139 °C.
To `CCN1c2ncc(CCc3ccncc3)cc2C(=O)N(C)c2ccc(C#N)nc21` belongs 149 to 150 °C.
To `Cc1ncccc1C(C#N)N1CCN(C(=O)Cc2ccc(OCc3ccc4ccccc4n3)cc2)CC1` (stereo not drawn) belongs 64 to 68 °C; to `CCc1cc(-c2ccccc2)nn1-c1ccc([N+](=O)[O-])cc1`, 112 to 113 °C.
With `CC(=O)OCCOc1ncnc(NS(=O)(=O)c2ccc(C)cc2)c1C=O`, the melting point is 130 to 144 °C.
To `CNc1ccc(-c2nc(C(=O)Nc3nccs3)c(-c3cccc(OC)c3)[nH]2)cc1` belongs 248 to 251 °C; to `O=C1CC(=O)OC(CCc2ccccc2)(C2CCCC2)C1` (stereo not drawn), 96 to 99 °C.
To `CC1=NC(C)(C)SC1=NO` belongs 159 to 161 °C; to `Cn1nc(S(C)(=O)=O)c(=O)c2ccc(Cl)cc21`, 270 to 272 °C.
To `Cc1ncc2cc(-c3c(Cl)cccc3Cl)c(N=CN(C)C)nc2n1` belongs 236 to 238 °C; to `CS(=O)(=O)Nc1ccc2c(c1)C(=O)C1(CC1)O2`, 152 to 154 °C.
`CN1CC2CC1CN2c1cncc(Cl)n1` (stereo not drawn) gave a melting point of 125 to 126 °C.
To `CCCCn1c(=O)c2[nH]c(/C=C/c3cc(OC)c(OC)c(OC)c3)nc2n(CCCC)c1=O` belongs 206 to 207 °C.
Then `O=Cc1cc(-c2ccc(Cl)cc2F)ccc1OC(F)(F)F`, with 41 to 42 °C.
In turn, `CN(C)CCOc1ccc2ccc(N)nc2n1` displayed a melting point of 105 °C.
Then `Clc1ncc(-c2ccnc(N3CCOCC3)n2)c2ccccc12`, with 180 to 181 °C; and `c1cc2c3c(c1)[C@H]1CCC[C@H]1N3CCNCC2` (relative stereo), with more than 130 °C; and `Cn1ccc(-c2ccc([N+](=O)[O-])o2)n1`, with 163 to 164 °C.
`COCCOc1ncc(Cl)c(N)c1Cl` came in with a melting point of 92 to 93.5 °C.
Then `Cc1c(-c2ccc(OC3CCCC3)cc2)[nH]c2ccc(OCc3ccccc3)cc12`, with 161 to 167 °C; and `CN(C)CC1=C(Nc2ccccc2)CC(C)(C)CC1=O`, with 111 to 112 °C; and `COc1ccc(OCc2ccccn2)cc1/C=C/c1cc(/C=C/c2c[nH]c3ccccc23)n[nH]1`, with 233 to 238 °C.
Then `CCOC(=O)c1c(S(C)=O)n(C2CC2)c2cc(F)c(F)cc2c1=O` (stereo not drawn), with 207 °C; and `CCc1cccc(CC)c1NC(=O)C(Cc1ccccc1)NC(C)=O` (stereo not drawn), with 205 to 206 °C.
To `CCCC1(C(C)C)NC(=S)N(c2cc(Cl)cc(Cl)c2)C1=O` (stereo not drawn) belongs 160 °C; to `CCCCn1nnnc1-c1ccc(C(=O)NCC2CCCC2(C)C)cc1` (stereo not drawn), 106 to 109 °C.
Take `CN(C)CCCCCCCOc1ccc(-c2nnc(CSCCOc3ccccc3)o2)cc1`: the melting point was 39 to 40 °C.
To `Cc1cccc(C)c1COc1cc(C(=O)O)cc2c1nc(C)n2C` belongs 285 to 286 °C.
To `NCCCN1CCN(C(c2ccccc2)c2ccccc2)CC1` belongs 62 to 63 °C; to `O=C(O)CCSc1ccc(CNC(=O)C2Cc3ccccc3N2S(=O)(=O)c2ccc(-c3cccc(C(F)(F)F)c3)cc2)cc1` (stereo not drawn), 77 to 81 °C.
In turn, `Cc1ccc(Cc2cnc[nH]2)cc1NS(C)(=O)=O` had a melting point of 170 °C.
As to `CC(C)n1nc(-c2sc(NC(=O)c3ccc(CCl)cc3)nc2-c2ccccc2)ccc1=O`, the melting point is more than 250 °C.
Then `CCCCCCCC(=O)NCCCCCCOS(C)(=O)=O`, with 62 to 63 °C; and `COC(=O)c1cccc2c1c1c(OC)c3c(cc1n2Cc1ccccc1)CCCC3`, with 144 to 146 °C.
For the molecule `CCCNC(=O)NS(=O)(=O)c1cc2c(cc1OC)OCCC2CNC(=O)c1cc(Cl)ccc1OC` (stereo not drawn), the melting point was 159 to 160 °C.
Then `CC1=CC(c2ccccc2C(F)(F)F)C([N+](=O)[O-])=C(C)N1` (stereo not drawn), with 201 °C; and `CC1(C2CCC3C4CCC5CC(O)CCC5(C)C4C(OC(=O)CCl)CC32C)OCCO1` (stereo not drawn), with 194 to 202 °C.
In the case of `COc1ccc(COC(=O)NC(CO)Cc2ccc(O)cc2)cc1` (stereo not drawn), the melting point is 139 to 141 °C.
To `CC(C)c1cc(OC2CN(C(c3ccccc3)c3ccccc3)C2)cc2c1C(=O)N(COC(=O)c1c(Cl)cccc1Cl)S2(=O)=O` belongs 205 to 207 °C.
To `CCCn1nc2c(N)nc3ccccc3c2c1CCCCN1C(=O)c2ccccc2C1=O` belongs 204 to 206 °C; to `CC/C(=C(\c1ccc(/C=C/C(=O)O)cc1)c1ccc(OC(=O)CN(C)C)cc1)c1ccccc1`, 206 to 208 °C.
To `CCS(=O)(=O)Nc1ccc(S(=O)(=O)C=CC#N)cc1` belongs 177 to 180 °C; to `COc1cc(OC)c([N+](=O)[O-])c(OC)c1NC(=O)OCCCl`, 133 °C.
Molecule `COc1ccc(C#N)cc1C(=O)NCCN1CCC(C(=O)c2ccc(F)cc2)CC1` yielded a melting point of 167 to 169 °C.
`COc1ccc(-c2ncc3n2CNc2ccccc2-3)cc1` registered a melting point of 190 to 191 °C.
To `Cc1c(-c2cccc(F)c2)sc2nc(N)[nH]c(=O)c12` belongs 310 to 330 °C.
Then `CSc1nccc(Oc2ccc(NC(=O)c3cc(F)cc(N4CCOCC4)c3)c3ccccc23)n1`, with 189 to 190 °C.
To `CN1C(=O)N(CC(CS(=O)(=O)c2ccc(-c3ccc(Cl)cc3)cc2)C(=O)O)C(=O)C1(C)C` (stereo not drawn) belongs 148 to 150 °C; to `COC(=C1C2CC3CC(C2)CC1C3)c1cc(OC)cc(OC(=O)C(C)(C)C)c1`, 159 °C; to `Cc1ccc(C(=O)Nc2ccc(NCC(C)O)c(C(F)(F)F)c2)cc1Nc1nccc(-c2cccnc2)n1` (stereo not drawn), 184 to 186 °C.
Consider `Cn1c(C(F)(F)F)ccc(-c2ccc(Cl)cc2F)c1=O`, for which the melting point fell in the range of 103 to 104 °C.
